Experimental data reported in patent publication US20260116921A1, “PEPTIDE INHIBITORS OF INTERLEUKIN-23 RECEPTOR AND THEIR USE TO TREAT INFLAMMATORY DISEASES” (priority 2018, published 2026).
Read-outs that look alike come from different tables or passages of the source. Numbered stars: 1 amine (or outer) side, 2 acyl side, 3 side chain; on linkers, the order of the positions; unused ones are H or OH. Bridge positions count the residues as written; N and C are the ends. Square brackets hold non-standard residues; d marks the D form. Peptide text beside a SMILES is read from it. Trp(5-OH) = N[C@@H](Cc1c[nH]c2ccc(O)cc12)C(=O)O; Trp(7-Me) = Cc1cccc2c(C[C@H](N)C(=O)O)c[nH]c12; Abu(4-yl) = O=C([C@H](CC[*:3])N[*:1])[*:2]; 2Nal = N[C@@H](Cc1ccc2ccccc2c1)C(=O)O; AEF = NCCOc1ccc(C[C@H](N)C(=O)O)cc1; Cit = NC(=O)NCCC[C@H](N)C(=O)O; αMeL = CC(C)C[C@](C)(N)C(=O)O; Pen = CC(C)(S)[C@H](N)C(=O)O; αMeK = C[C@](N)(CCCCN)C(=O)O; Aib = CC(C)(N)C(=O)O; βAla = NCCC(=O)O

T1: IL-23R (Homo sapiens, UniProt Q5VWK5)
T1 sequence (Q5VWK5 24-629): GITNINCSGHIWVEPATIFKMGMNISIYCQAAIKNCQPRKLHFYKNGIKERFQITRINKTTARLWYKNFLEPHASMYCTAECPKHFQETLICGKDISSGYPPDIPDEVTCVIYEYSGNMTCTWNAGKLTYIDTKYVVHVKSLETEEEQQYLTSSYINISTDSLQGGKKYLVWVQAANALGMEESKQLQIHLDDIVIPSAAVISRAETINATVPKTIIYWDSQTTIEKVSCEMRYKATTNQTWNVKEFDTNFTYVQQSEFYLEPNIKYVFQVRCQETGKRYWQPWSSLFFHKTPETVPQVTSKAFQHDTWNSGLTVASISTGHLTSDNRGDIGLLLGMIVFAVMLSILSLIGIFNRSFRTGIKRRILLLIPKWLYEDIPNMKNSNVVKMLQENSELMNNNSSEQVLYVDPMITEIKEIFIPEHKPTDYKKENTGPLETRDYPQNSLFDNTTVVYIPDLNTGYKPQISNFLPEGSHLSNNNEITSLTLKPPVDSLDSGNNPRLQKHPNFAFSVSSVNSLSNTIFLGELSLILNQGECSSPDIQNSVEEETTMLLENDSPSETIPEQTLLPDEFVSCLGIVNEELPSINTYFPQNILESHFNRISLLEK

T2: IL-23R (human, UniProt Q5VWK5 24-629)
T2 sequence (looked up): T1 sequence (Q5VWK5 24-629)

B1: SEQ ID NO: 6 (peptide)
peptide: XNTXQXXXXKNN
modifications: Ac-[Pen]-NT-[W(7-Me)]-Gln-[Pen]-[Phe[4-(2-aminoethoxy)]-[2-Nal]-[α-MeLeu]-[Lys(Ac)]-NN-NH2; Pen-Pen disulfide
B2: SEQ ID NO: 21 (peptide)
peptide: Ac-[Pen]NTWQ[Pen][AEF][Trp(5-OH)][αMeL]K(Ac)NN-NH2
modifications: disulfide 1-6
SMILES: CC(=O)NCCCC[C@H](NC(=O)[C@](C)(CC(C)C)NC(=O)[C@H](Cc1c[nH]c2ccc(O)cc12)NC(=O)[C@H](Cc1ccc(OCCN)cc1)NC(=O)[C@H]1NC(=O)[C@H](CCC(N)=O)NC(=O)[C@H](Cc2c[nH]c3ccccc23)NC(=O)[C@H]([C@@H](C)O)NC(=O)[C@H](CC(N)=O)NC(=O)[C@@H](NC(C)=O)C(C)(C)SSC1(C)C)C(=O)N[C@@H](CC(N)=O)C(=O)N[C@@H](CC(N)=O)C(N)=O
B3: SEQ ID NO: 27 (peptide)
peptide: RXQTXQCXXXENN
modifications: Ac-[(D)Arg]-[Abu]-QT-[W(7-Me)]-QC-[Phe[4-(2-aminoethoxy)]-[2-Nal]-[THP]-ENN-NH2; Abu-Cys thioether
B4: SEQ ID NO: 28 (peptide)
peptide: XQTXQCXXXENN
modifications: Ac-[Abu]-QT-[W(7-Me)]-QC-[Phe[4-(2-aminoethoxy)]-[2-Nal]-[THP]-ENN-NH2; Abu-Cys thioether
B5: SEQ ID NO: 29 (peptide)
peptide: RXQTXQCXXXKNN
modifications: Ac-[(D)Arg]-[Abu]-QT-[W(7-Me)]-QC-[Phe[4-(2-aminoethoxy)]-[2-Nal]-[THP]-[Lys(Ac)]-NN-NH2; Abu-Cys thioether

Key:
[1] = biological target: T1, IL-23R; assay: DB cells IL23R pSTAT3 cell assay (pStat3 HTRF); format: cell-based; conditions: Table E3; DB cells, IL-23 0.5 nM, 30 minutes at 37° C.; read-out: pStat3 HTRF (IC50)
Method in brief: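 DB cells (5×10E5/well, RPMI-1640 + 10% FBS) stimulated with 0.5 nM final IL-23 plus serially diluted test peptides for 30 min at 37 °C, 5% CO2. Phospho-STAT3 (Tyr705) in lysates measured by HTRF using a two-plate protocol.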

[2] = 20% human fecal homogenate, 37° C., 20 μM
[3] = 20% cynomolgus monkey fecal homogenate, 37° C., 20 μM
[4] = SD rat plasma, 37° C., 20 μM
Protocol: Peptides of interest (20 μM) were incubated with pre-warmed rat plasma (SD rat, mixed gender pooled, EDTA, filtered through 0.22 μm, BioreclamationIVT) at 37° C. […] Quenched samples were stored at 4° C. until the end of the experiment and centrifuged at 4,000 rpm for 10 minutes. The supernatant were diluted 1:1 with deionized water and analyzed using LC-MS. Percentage remaining at each time point was calculated based on the peak area ratio (analyte over internal standard) relative to the initial level at time zero. Half-lives were calculated by fitting to a first-order exponential decay equation using GraphPad.

[5] = in vitro; format: in vitro ADME; parameters: half-life: dose or concentration left out as unconfirmed; conditions: pH 6.8, 37° C., § matrix is 100 fold dilution of standard SIF concentration; for SIF t½: simulated intestinal fluid, pancreatin; for half-life: simulated intestinal fluid (SIF) with pancreatin, read-out: SIF t½ (converted)
[6] = biological target: T2, IL-23R; assay: cell-based or functional assay
[7] = biological target: T2, IL-23R; assay: cell-based or functional assay; remark: listed apart in the source
[8] = biological target: T2, IL-23R; assay: cell-based or functional assay; remark: listed apart in the source

Row | Molecule | t½: Human Feces anaerobic [2] [h] | t½: Monkey Feces anaerobic [3] [h] | t½: Rat Plasma EDTA [4] [h] | further results
1 | CC(=O)NCCCC[C@H](NC(=O)[C@](C)(CC(C)C)NC(=O)[C@H](Cc1ccc2ccccc2c1)NC(=O)[C@H](Cc1ccc(OCCN)cc1)NC(=O)[C@H]1NC(=O)[C@H](CCC(N)=O)NC(=O)[C@H](Cc2c[nH]c3c(C)cccc23)NC(=O)[C@H]([C@@H](C)O)NC(=O)[C@H](CC(N)=O)NC(=O)[C@@H](NC(C)=O)C(C)(C)SSC1(C)C)C(=O)N1CCC[C@H]1C(=O)NCCC(N)=O [compound 211] | 10 | >24 | – | IC50 [1]: > 100 nM
2 | CC(=O)NCCCC[C@H](NC(=O)[C@](C)(CC(C)C)NC(=O)[C@H](Cc1ccc2ccccc2c1)NC(=O)[C@H](Cc1ccc(OCCN)cc1)NC(=O)[C@H]1NC(=O)[C@H](CCC(N)=O)NC(=O)[C@H](Cc2c[nH]c3c(C)cccc23)NC(=O)[C@H]([C@@H](C)O)NC(=O)[C@H](CC(N)=O)NC(=O)[C@@H](NC(C)=O)C(C)(C)SSC1(C)C)C(=O)N[C@@H](C(=O)NCCC(N)=O)[C@H](C)O [compound 218] | – | – | 1 | –
3 | CC(=O)NCCCC[C@H](NC(=O)[C@](C)(CCCCN)NC(=O)[C@H](Cc1ccc2ccccc2c1)NC(=O)[C@H](Cc1ccc(OCCN)cc1)NC(=O)[C@H]1NC(=O)[C@H](CCC(N)=O)NC(=O)[C@H](Cc2c[nH]c3c(C)cccc23)NC(=O)[C@H]([C@@H](C)O)NC(=O)C(C)(C)NC(=O)[C@@H](NC(C)=O)C(C)(C)SSC1(C)C)C(=O)N[C@@H](CC(N)=O)C(=O)NCCC(N)=O [compound 240] (Ac-[Pen][Aib]T[Trp(7-Me)]Q[Pen][AEF][2Nal][αMeK]K(Ac)N[βAla]-NH2; disulfide 1-6) | 4 | 3 | 8 | IC50 [1]: 10 to 100 nM
4 | CC(=O)NCCCC[C@@H]1NC(=O)[C@H](Cc2c[nH]c3c(C)cccc23)NC(=O)[C@H]([C@@H](C)O)NC(=O)[C@H](CC(N)=O)NC(=O)[C@@H](NC(C)=O)C(C)(C)SSC(C)(C)[C@@H](C(=O)N[C@@H](Cc2ccc(OCCN)cc2)C(=O)N[C@@H](Cc2ccc3ccccc3c2)C(=O)N[C@@](C)(CCCCN)C(=O)N[C@@H](CCCCNC(C)=O)C(=O)N[C@@H](CC(N)=O)C(=O)N[C@H](Cc2ccccc2)C(N)=O)NC1=O [compound 258] | >24 | >24 | >24 | SIF t½ [5]: 14 h
5 | CC(=O)N[C@@H]1C(=O)N[C@@H](CC(N)=O)C(=O)N[C@@H]([C@@H](C)O)C(=O)N[C@@H](Cc2c[nH]c3c(C)cccc23)C(=O)N[C@@H](CCCNC(N)=O)C(=O)N[C@H](C(=O)N[C@@H](Cc2ccc(OCCN)cc2)C(=O)N[C@@H](Cc2ccc3ccccc3c2)C(=O)N[C@@](C)(CCCCN)C(=O)N[C@@H](CCCNC(N)=O)C(=O)NCCC(=O)NCCC(N)=O)C(C)(C)SSC1(C)C [compound 281] (Ac-[Pen]NT[Trp(7-Me)][Cit][Pen][AEF][2Nal][αMeK][Cit][βAla][βAla]-NH2; disulfide 1-6) | >24 | >24 | >24 | IC50 [1]: 10 to 100 nM; SIF t½ [5]: 14 h
6 | CC(=O)NCCCC[C@H](NC(=O)[C@](C)(CCCCN)NC(=O)[C@H](Cc1ccc2ccccc2c1)NC(=O)[C@H](Cc1ccc(OCCN)cc1)NC(=O)[C@H]1NC(=O)[C@H](CCCCNC(=O)C(C)(C)N)NC(=O)[C@H](Cc2c[nH]c3c(C)cccc23)NC(=O)[C@H]([C@@H](C)O)NC(=O)[C@H](CC(N)=O)NC(=O)[C@@H](NC(C)=O)C(C)(C)SSC1(C)C)C(=O)N[C@@H](CC(N)=O)C(=O)N[C@H](CC(C)C)C(N)=O [compound 322] | >24 | >24 | – | half-life [5]: 60 min
7 | CC(=O)NCCCC[C@@H]1NC(=O)[C@H](Cc2c[nH]c3c(C)cccc23)NC(=O)[C@H]([C@@H](C)O)NC(=O)[C@H](CCC(N)=O)NC(=O)[C@@H](NC(=O)[C@@H](CCCNC(=N)N)NC(C)=O)CCSC[C@@H](C(=O)N[C@@H](Cc2ccc(OCCN)cc2)C(=O)N[C@@H](Cc2ccc3ccccc3c2)C(=O)N[C@@](C)(CCCCN)C(=O)N[C@@H](CCCCNC(C)=O)C(=O)N[C@@H](CC(N)=O)C(=O)N[C@H](CC(C)C)C(N)=O)NC1=O [compound 325] (Ac-[dR][Abu(4-yl)]QT[Trp(7-Me)]K(Ac)C[AEF][2Nal][αMeK]K(Ac)N[dL]-NH2; thioether 2-7) | >24 | 22 | – | half-life [5]: 120 min
8 | B1 | – | – | – | pStat3 HTRF (nM) IC50 [6]: < 1 nM; NK Cell Assay (nM) IC50 [7]: < 10 nM
9 | B2 | – | – | – | pStat3 HTRF (nM) IC50 [6]: > 100 nM
10 | B3 | – | – | – | pStat3 HTRF (nM) IC50 [8]: < 1 nM
11 | B4 | – | – | – | pStat3 HTRF (nM) IC50 [8]: < 1 nM
12 | B5 | – | – | – | pStat3 HTRF (nM) IC50 [8]: < 1 nM
